Assay results taken from US9758492B2, “IDO inhibitors” (Bristol-Myers Squibb Company, priority 2013, dated 2017).
pIC50: −log10 of the molar value.

Target: T1, Human IDO1 (Homo sapiens, UniProt P14902)
T1 construct: expressed in transfected cells; host or cells: HEK293
Test: IDO Kynurenine Assay with Human IDO1/HEK293 Cells
Type: cell-based
Details: read-out: HEK human IDO-1 (IC50)
Experimental: IDO Kynurenine Assay with Human IDO1/HEK293 Cells
Human IDO1/HEK293 cells were seeded at 10,000 cells per 50 uL per well with RPMI/phenol red free media contains 10% FBS in a 384-well black wall clear bottom tissue culture plate (Matrix Technologies LLC) 125 nL of certain concentration of compound was then added to each well using ECHO liquid handling systems. The cells were incubated for 20 hours in 37° C. incubator with 5% CO2.
The compound treatments were stopped by adding Trichloroacetic Acid (Sigma-Aldrich) to a final concentration at 0.2%. The cell plate was further incubated at 50° C. for 30 minute. The equal volume supernatant (20 uL) and 0.2% (w/v) Ehrlich reagent (4-dimethylaminobenzaldehyde, Sigma-Aldrich) in glacial acetic acid were mixed in a new clear bottom 384-well plate. This plate was then incubated at room temperature for 30 minute. The absorbance at 490 nm was measured on Envision plate reader.
Compound IC50 values were calculated using the counts of 500 nM of a reference standard treatment as one hundred percent inhibition, and counts of no compound but DMSO treatment as zero percent inhibition.

T1 sequence (P14902 whole entry): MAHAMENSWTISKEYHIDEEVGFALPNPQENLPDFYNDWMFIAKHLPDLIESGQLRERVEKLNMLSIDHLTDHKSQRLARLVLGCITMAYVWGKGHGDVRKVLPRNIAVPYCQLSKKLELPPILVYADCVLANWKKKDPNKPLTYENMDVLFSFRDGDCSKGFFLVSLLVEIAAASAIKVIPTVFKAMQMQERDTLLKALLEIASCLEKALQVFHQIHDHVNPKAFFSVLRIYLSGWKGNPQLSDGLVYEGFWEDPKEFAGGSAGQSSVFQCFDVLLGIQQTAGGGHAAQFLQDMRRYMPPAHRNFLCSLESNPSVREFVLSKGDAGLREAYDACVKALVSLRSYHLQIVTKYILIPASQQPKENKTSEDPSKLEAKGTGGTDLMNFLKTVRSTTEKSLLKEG

SMILES	pIC50
Cc1ccc(NC(=O)Nc2cc(-c3cc(C)ccc3C(=O)O)ccc2N(CC(C)C)CC(C)C)cc1 [Example 530, 4′-(Diisobutylamino)-5-methyl-3′-(3-(p-tolyl)ureido)-[1,1′-biphenyl]-2-carboxylic acid]	6.52
CC(C)CN(c1cc(F)c(-c2cc(F)ccc2C(=O)O)cc1NC(=O)Nc1cncnc1)C1CCCCC1 [Example 486]	7.52
Cc1ccc(NC(=O)Nc2cc(-c3ccccc3-c3nnn[nH]3)ccc2N(C2CC2)C2CC2)cc1 [Example 542]	6.12
Cc1ccc(NC(=O)Nc2cc(-c3ccccc3-c3nnn[nH]3)c(F)cc2N(CC(C)C)CC(C)C)cc1 [Example 429]	8.26
CC(C)CN(c1cc(F)c(-c2cc(F)ccc2C(=O)O)cc1NC(=O)Nc1ccc(C(F)(F)F)nc1)C1CCCCC1 [Example 517, 4′-(Cyclohexyl(isobutyl)amino)-2′,5-difluoro-5′-(3-(6-(trifluoromethyl)pyridin-3-yl)ureido)-[1,1′-biphenyl]-2-carboxylic acid]	7.15
Cc1cnc(NC(=O)Nc2cc(-c3cc(F)ccc3C(=O)O)c(F)cc2N(CC(C)C)C2CCCCC2)cn1 [Example 525, 4′-(Cyclohexyl(isobutyl)amino)-2′,5-difluoro-5′-(3-(5-methylpyrazin-2-yl)ureido)-[1,1′-biphenyl]-2-carboxylic acid]	7.05
CC(C)CN(c1ccc(-c2cc(F)ccc2C(=O)O)cc1NC(=O)Nc1ccc2ncncc2c1)C1CCCCC1 [Example 405]	5.91
CC(C)CN(c1ccc(-c2cc(F)ccc2C(=O)O)cc1NC(=O)Nc1ccnnc1)C1CCCCC1 [Example 401]	5.93
CC(C)CN(c1cc(F)c(-c2cc(F)ccc2C(=O)O)cc1NC(=O)Nc1ccn(C)n1)C1CCCCC1 [Example 515, 4′-(Cyclohexyl(isobutyl)amino)-2′,5-difluoro-5′-(3-(1-methyl-1H-pyrazol-3-yl)ureido)-[1,1′-biphenyl]-2-carboxylic acid]	5.37
COC[C@H](C)N(CCCC(F)(F)F)c1ccc(-c2ccccc2-c2nnn[nH]2)cc1NC(=O)Nc1ccc(C)cc1 [Example 423]	7.70
Cc1ccc(NC(=O)Nc2cc(-c3cc(F)ccc3C(=O)O)c(F)cc2N(CC(C)C)C2CCCCC2)cn1 [Example 394]	8.10
CCOc1ccc(NC(=O)Nc2cc(-c3cc(F)ccc3C(=O)O)c(F)cc2N(CC(C)C)C2CCC(F)(F)CC2)cc1 [Example 540]	8.00
CC(C)CN(CC(C)C)c1ccc(-c2ccccc2-c2nnn[nH]2)cc1NC(=O)Nc1ccc(C#N)nc1 [Example 489]	6.66
Cc1ccc(NC(=O)Nc2cc(-c3ccccc3-c3nnn[nH]3)ccc2N(CC(C)C)[C@H]2CC[C@@H](C(F)(F)F)CC2)cc1 [Example 305, 1-(4-(isobutyl(4-(trifluoromethyl)cyclohexyl)amino)-2′-(1H-tetrazol-5-yl)-[1,1′-biphenyl]-3-yl)-3-(p-tolyl) urea]	8.22
CCC(CC)N(CC(C)C)c1ccc(-c2cc(F)ccc2C(=O)O)cc1NC(=O)Nc1ccc(C)cc1 [Example 439]	8.00
CC(C)CN(c1c(F)cc(-c2cc(F)ccc2C(=O)O)cc1NC(=O)Nc1ccccc1F)C1CCCCC1 [Example 431]	8.42
COc1ccc(-c2ccc(N(CC(C)C)CC(C)C)c(NC(=O)Nc3ccc(Cl)cc3F)c2)c(C(=O)O)c1 [Example 494]	7.52
CC(C)CN(c1cc(F)c(-c2ccccc2-c2nnn[nH]2)cc1NC(=O)Nc1ccccc1F)C1CCC(F)(F)CC1 [Example 537, 1-(4-((4,4-Difluorocyclohexyl)(isobutyl)amino)-6-fluoro-2′-(1H-tetrazol-5-yl)-[1,1′-biphenyl]-3-yl)-3-(2-fluorophenyl)urea]	8.22
C=C(C)CN(CCCC(F)(F)F)c1ccc(-c2ccccc2C(=O)O)cc1NC(=O)Nc1ccc(C)cc1 [Example 418]	8.33
Cc1ccc(NC(=O)Nc2cc(-c3ccccc3C(=O)O)cc(F)c2N(CC(C)C)C2CCCCC2)cc1 [Example 437]	8.50
Cc1ccc(C(=O)O)c(-c2ccc(N(CC(C)C)CC(C)C)c(NC(=O)Nc3ccccc3F)c2)c1 [Example 526, 4′-(Diisobutylamino)-3′-(3-(2-fluorophenyl)ureido)-5-methyl-[1,1′-biphenyl]-2-carboxylic acid]	6.62
Cc1ccc(NC(=O)Nc2cc(-c3cccc(Cl)c3C(=O)O)ccc2N(CC(C)C)CC(C)C)cc1 [Example 492]	6.80
COC(C)(C)CCN(c1ccc(-c2cc(F)ccc2C(=O)O)cc1NC(=O)Nc1ccc(C)cc1)C1CCCCC1 [Example 421]	5.48

The remaining lines, values ahead:

pIC50	SMILES
8.00	[2H]C([2H])(C(C)C)N(c1ccc(-c2ccccc2C(=O)O)cc1NC(=O)Nc1ccc(C)cc1)C([2H])([2H])C(C)C [Example 478]
5.71	Cc1ncc(NC(=O)Nc2cc(-c3cc(F)ccc3C(=O)O)c(F)cc2N(CC(C)C)C2C[C@H]3CC[C@@H]2C3)cn1 (some centres unmarked) [Example 413]
6.85	CC(C)CN(CC(C)C)c1ccc(-c2ccccc2-c2nnn[nH]2)cc1NC(=O)Nc1ccc2c(c1)CCC2 [Example 458]
8.79	CC(C)CN(CC(C)C)c1cc(F)c(-c2ccccc2C(=O)O)cc1NC(=O)Nc1ccc(Cl)cc1F [Example 427]
6.85	Cc1cc(NC(=O)Nc2cc(-c3cccc(C)c3C(=O)O)ccc2N(CC(C)C)CC(C)C)on1 [Example 535, 4′-(Diisobutylamino)-3-methyl-3′-(3-(3-methylisoxazol-5-yl)ureido)-[1,1′-biphenyl]-2-carboxylic acid]
8.12	[2H]C([2H])(C(C)C)N(c1ccc(-c2cc(F)ccc2C(=O)O)cc1NC(=O)Nc1ccc(C)cc1)C([2H])([2H])C(C)C [Example 477]
7.22	COCCN(c1ccc(-c2cc(F)ccc2C(=O)O)cc1NC(=O)Nc1ccc(C)cc1)C1CCCCC1 [Example 447]
6.10	CC(C)CN(CC(C)C)c1ccc(-c2ccccc2-c2nnn[nH]2)cc1NC(=O)NC1CCCC1 [Example 464]
7.70	Cc1cc(NC(=O)Nc2cc(-c3cc(F)ccc3C(=O)O)c(F)cc2N(CC(C)C)C2CCC(F)(F)CC2)no1 [Example 518, 4′-((4,4-Difluorocyclohexyl)(isobutyl)amino)-2′,5-difluoro-5′-(3-(5-methylisoxazol-3-yl)ureido)-[1,1′-biphenyl]-2-carboxylic acid]
7.70	CC(C)CN(CC(C)C)c1ccc(-c2ccc(Cl)cc2C(=O)O)cc1NC(=O)Nc1ccc(Cl)cc1F [Example 360, 4-Chloro-3′-(3-(4-chloro-2-fluorophenyl)ureido)-4′-(diisobutylamino)-[1,1′-biphenyl]-2-carboxylic acid]
8.81	CCC(CC)N(CC(C)C)c1ccc(-c2ccccc2C(=O)O)cc1NC(=O)Nc1ccccc1F [Example 448]
7.40	Cc1ccc(NC(=O)Nc2cc(-c3ccccc3C(=O)O)ccc2N(CC(C)C)C2CCC(C(F)(F)F)CC2)cc1 (centres unmarked) [Example 307, 4′-(isobutyl(4-(trifluoromethyl)cyclohexyl)amino)-3′-(3-(p-tolyl)ureido)-[1,1′-biphenyl]-2-carboxylic acid]
7.40	Cc1ccc(NC(=O)Nc2cc(-c3cc(F)ccc3C(=O)O)ccc2N(CC(C)C)C2CCC(C(F)(F)F)CC2)cc1 (centres unmarked) [Example 306, 5-fluoro-4′-(isobutyl(4-(trifluoromethyl)cyclohexyl)amino)-3′-(3-(p-tolyl)ureido)-[1,1′-biphenyl]-2-carboxylic acid]
6.29	CC(C)CN(CC(C)C)c1ccc(-c2ccccc2-c2nnn[nH]2)cc1NC(=O)Nc1ccc(C(C)C)cc1 [Example 455]
5.83	COC(C)(C)CCN(CCCC(F)(F)F)c1ccc(-c2ccccc2C(=O)O)cc1NC(=O)Nc1ccc(C)cc1 [Example 422]
6.80	Cc1ccc(C(=O)O)c(-c2ccc(N(CC(C)C)CC(C)C)c(NC(=O)Nc3ccc(F)cc3F)c2)c1 [Example 528, 3′-(3-(2,4-Difluorophenyl)ureido)-4′-(diisobutylamino)-5-methyl-[1,1′-biphenyl]-2-carboxylic acid]
8.00	Cc1ccc(NC(=O)Nc2cc(-c3ccccc3-c3nnn[nH]3)ccc2N(CCCC(F)(F)F)C2CCCCC2)cc1 [Example 467]
7.70	CC(C)CN(CC(C)C)c1ccc(-c2ccccc2-c2nnn[nH]2)cc1NC(=O)Nc1ccc(N(C)C)cc1 [Example 463]
8.81	CCC(CC)N(CC(C)C)c1ccc(-c2ccccc2C(=O)O)cc1NC(=O)Nc1ccc(Cl)cc1F [Example 440]
7.40	Cc1ccc(C(=O)O)c(-c2ccc(N(CC(C)C)CC(C)C)c(NC(=O)Nc3ccc(Cl)cc3F)c2)c1 [Example 527, 3′-(3-(4-Chloro-2-fluorophenyl)ureido)-4′-(diisobutylamino)-5-methyl-[1,1′-biphenyl]-2-carboxylic acid]
8.00	Cc1ccc(NC(=O)Nc2cc(-c3ccccc3C(=O)O)c(F)cc2N(CC(C)C)CC(C)C)cc1 [Example 425]
6.49	CC(C)CN(CC(C)C)c1ccc(-c2cccc(OC(F)(F)F)c2C(=O)O)cc1NC(=O)Nc1ccc(C#N)nc1 [Example 501]
5.31	CC(C)CN(c1cc(F)c(-c2cc(F)ccc2C(=O)O)cc1NC(=O)Nc1cnn(CC(F)(F)F)c1)C1CCC(F)(F)CC1 [Example 520, 4′-((4,4-Difluorocyclohexyl)(isobutyl)amino)-2′,5-difluoro-5′-(3-(1-(2,2,2-trifluoroethyl)-1H-pyrazol-4-yl)ureido)-[1,1′-biphenyl]-2-carboxylic acid]
9.18	COCCN(c1ccc(-c2ccccc2-c2nnn[nH]2)cc1NC(=O)Nc1ccc(Cl)cc1F)C1CCCCC1 [Example 452]
